In patent US4206215A, “Antimicrobial bis-[4-(substituted-amino)-1-pyridinium]alkanes” (Sterling Drug Inc., priority 1977, dated 1980):
Like-named read-outs stand apart in the source and are kept apart here.

How the values were obtained:
P. mirab. MGH-1 = assay: In vitro antibacterial activity, MIC (modified Autotiter method); assay type: cell-based, Proteus mirabilis; conditions: 18-20 hours at 37° C.; for MIC: Proteus mirabilis, 20 h, read-out: MIC P. mirab. MGH-1
How it was run: (§1)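 Modified Goss Autotiter dilution. 1,000 mcg./ml. solution → twofold series in sterile H2O → inoculated 2x glucose semisynthetic medium added. Tested finals 500–0.06 mcg./ml.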

[1] = tested on: Herpes simplex type 2 virus; assay: Virucidal activity in vitro (plaque inhibition test); assay type: cell-based; conditions: 2 mg. of test compound on growth medium
Procedure: Virucidal activity of representative examples against Herpes simplex type 2 virus was determined in vitro employing a procedure similar to the plaque inhibition test for detection of specific inhibitors of DNA-containing viruses published by E. C. Herrmann, Jr., Proc. Soc. Exp. Biol. Med. 107, 142 (1961) wherein 2 mg. of the test compound was placed on the surface of the growth medium.

Ps. aerug. MGH-2 = assay: In vitro antibacterial activity, MIC (modified Autotiter method); assay type: cell-based, Pseudomonas aeruginosa; conditions: Pseudomonas aeruginosa, 20 h, 18-20 hours at 37° C.; read-out: MIC Ps. aerug. MGH-2
How it was run: as §1

K. pneum. 39645 = assay: as above; assay type: cell-based, Klebsiella pneumoniae; conditions: Klebsiella pneumoniae, 20 h, 18-20 hours at 37° C.; read-out: MIC K. pneum. 39645
How it was run: as §1

[2] = Acute oral toxicity (ALD50); assay type: in vivo; conditions: mouse, in vivo, po, mice, read-out: 7-Day ALD50
Procedure: (§2) The acute oral toxicity (ALD50) of several representative examples was determined as follows: Groups of 3 young adult male Swiss-Webster strain albino mice were fasted approximately 4 hours before medication and then medicated once orally by stomach tube.

[3] = tested on: young adult male Swiss-Webster strain albino mice; assay: Acute oral toxicity (ALD50); assay type: in vivo
Procedure: as §2

[4] = suspension in 1% gum tragacanth
[5] = 125 mg/kg oral, suspension in 1% G.T.
[6] = 250 mg/kg oral, suspension in 1% G.T.
[7] = 500 mg/kg oral, suspension in 1% G.T.
[8] = 1000 mg/kg oral, suspension in 1% G.T.
[9] = 125 mg/kg oral, aqueous solution
[10] = 250 mg/kg oral, aqueous solution
[11] = 500 mg/kg oral, aqueous solution

Question: What does the source list for `CCCCCCNc1cc[n+](CCCCCCCCCCCCCC[n+]2ccc(NCCCCCC)cc2)cc1` [Example 5C, 1,14-bis-[4-(hexylamino)-1-pyridinium]tetradecane dibromide]?
Answer: MIC P. mirab. MGH-1 (P. mirab. MGH-1; listed as SC): 1.5 µg/mL; Virucidal activity against Herpes simplex type 2 virus [1]: active; MIC (Ps. aerug. MGH-2): 6 µg/mL; MIC (K. pneum. 39645): 0.76 µg/mL; LD50 at 168 h [2, 4]: > 1000 mg/kg; Mortality 7 Days [3, 5]: 0/3; Mortality 24 Hrs [3, 5]: 0/3; Mortality 7 Days [3, 6]: 0/3; Mortality 24 Hrs [3, 6]: 0/3; Mortality 7 Days [3, 7]: 0/3; Mortality 24 Hrs [3, 7]: 0/3; Mortality 7 Days [3, 8]: 1/3; Mortality 24 Hrs [3, 8]: 1/3

Question: For `CCCCC(CC)CNc1cc[n+](CCCCCCCCCC[n+]2ccc(NCC(CC)CCCC)cc2)cc1` (stereo not drawn) [Example 58, 1,10-bis-[4-(2-ethylhexylamino)-1-pyridinium]decane dibromide], which MIC (P. mirab. MGH-1) is on record?
Answer: Its MIC is 12.1 µg/mL.

Question: What about the “Virucidal activity against Herpes simplex type 2 virus” value (“Virucidal activity” for short) [1] of the same molecule?
Answer: Its value is “active”.

Question: And the MIC (Ps. aerug. MGH-2)?
Answer: Its MIC is 48.4 µg/mL.

Question: And the MIC (K. pneum. 39645)?
Answer: The MIC was 3 µg/mL.

Question: What about the LD50 at 168 h [2, 4] of the same molecule?
Answer: Its LD50 at 168 h is > 1000 mg/kg.

Question: What about the “Mortality 7 Days” value [3, 5] of the same molecule?
Answer: Its value is 0/3.

Question: What about the “Mortality 24 Hrs” value [3, 5] of the same molecule?
Answer: The value was 0/3.

Question: And the “Mortality 7 Days” value [3, 6]?
Answer: The value was 0/3.

Question: And the “Mortality 24 Hrs” value [3, 6]?
Answer: The value was 0/3.

Question: And the “Mortality 7 Days” value [3, 7]?
Answer: Its value is 0/3.

Question: What about the “Mortality 24 Hrs” value [3, 7] of the same molecule?
Answer: The value was 0/3.

Question: What about the “Mortality 7 Days” value [3, 8] of the same molecule?
Answer: Its value is 0/3.

Question: What about the “Mortality 24 Hrs” value [3, 8] of the same molecule?
Answer: The value was 0/3.

Question: Which MIC (P. mirab. MGH-1) does the source give for `CCCCCCCNc1cc[n+](CCCCCCCCCCCC[n+]2ccc(NCCCCCCC)cc2)cc1` [Example 3, 1,12-bis-[4-(heptylamino)-1-pyridinium]dodecane dibromide] here?
Answer: Its MIC is 3.13 µg/mL.

Question: What about the “Virucidal activity” value [1] of the same molecule?
Answer: The value was “active”.

Question: And the MIC (Ps. aerug. MGH-2)?
Answer: Its MIC is 6.25 µg/mL.

Question: And the MIC (K. pneum. 39645)?
Answer: Its MIC is 3.13 µg/mL.

Question: And the LD50 at 168 h ([2]; aqueous solution)?
Answer: The LD50 at 168 h was 315 mg/kg.

Question: What about the LD50 at 168 h [2, 4] of the same molecule?
Answer: The LD50 at 168 h was 1000 mg/kg.

Question: And the “Mortality 7 Days” value [3, 9]?
Answer: Its value is 0/3.

Question: What about the “Mortality 24 Hrs” value [3, 9] of the same molecule?
Answer: Its value is 0/3.

Question: And the “Mortality 7 Days” value [3, 5]?
Answer: Its value is 0/3.

Question: What about the “Mortality 24 Hrs” value [3, 5] of the same molecule?
Answer: Its value is 0/3.

Question: What about the “Mortality 7 Days” value [3, 10] of the same molecule?
Answer: Its value is 1/3.

Question: And the “Mortality 24 Hrs” value [3, 10]?
Answer: The value was 1/3.

Question: And the “Mortality 7 Days” value [3, 6]?
Answer: The value was 0/3.

Question: What about the “Mortality 24 Hrs” value [3, 6] of the same molecule?
Answer: The value was 0/3.

Question: And the “Mortality 7 Days” value [3, 11]?
Answer: The value was 3/3.

Question: And the “Mortality 24 Hrs” value [3, 11]?
Answer: Its value is 2/3.

Question: And the “Mortality 7 Days” value [3, 7]?
Answer: Its value is 1/3.

Question: And the “Mortality 24 Hrs” value [3, 7]?
Answer: The value was 0/3.

Question: What about the “Mortality 7 Days” value [3, 8] of the same molecule?
Answer: The value was 1/3.

Question: What about the “Mortality 24 Hrs” value [3, 8] of the same molecule?
Answer: The value was 1/3.

Question: Which “MIC P. mirab. MGH-1” value (P. mirab. MGH-1) does the source give for `CCCCCCCNc1cc[n+](CCCCCCCCC[n+]2ccc(NCCCCCCC)cc2)cc1` [Example 24, 1,9-bis-[4-(heptylamino)-1-pyridinium]nonane dibromide] here?
Answer: The value was 15.6 µg/mL.

Question: And the “Virucidal activity” value [1]?
Answer: The value was “active”.

Question: And the MIC (Ps. aerug. MGH-2)?
Answer: Its MIC is 62.5 µg/mL.

Question: What about the MIC (K. pneum. 39645) of the same molecule?
Answer: Its MIC is 1.95 µg/mL.

Question: What about the LD50 at 168 h [2, 4] of the same molecule?
Answer: Its LD50 at 168 h is > 1000 mg/kg.

Question: What about the “Mortality 7 Days” value [3, 5] of the same molecule?
Answer: Its value is 0/3.

Question: And the “Mortality 24 Hrs” value [3, 5]?
Answer: The value was 0/3.

Question: And the “Mortality 7 Days” value [3, 6]?
Answer: The value was 0/3.

Question: And the “Mortality 24 Hrs” value [3, 6]?
Answer: The value was 0/3.

Question: What about the “Mortality 7 Days” value [3, 7] of the same molecule?
Answer: Its value is 1/3.

Question: And the “Mortality 24 Hrs” value [3, 7]?
Answer: Its value is 0/3.

Question: And the “Mortality 7 Days” value [3, 8]?
Answer: Its value is 0/3.

Question: And the “Mortality 24 Hrs” value [3, 8]?
Answer: Its value is 0/3.

Question: With `CCCCCCCCNc1cc[n+](CCCCCCCC[n+]2ccc(NCCCCCCCC)cc2)cc1` [Example 11, 1,8-bis-[4-(octylamino)-1-pyridinium]octane dibromide] as the molecule, how does the MIC (P. mirab. MGH-1) read?
Answer: The MIC was 7.8 µg/mL.

Question: What about the “Virucidal activity” value [1] of the same molecule?
Answer: Its value is “active”.

Question: What about the MIC (Ps. aerug. MGH-2) of the same molecule?
Answer: The MIC was 15.6 µg/mL.

Question: And the MIC (K. pneum. 39645)?
Answer: The MIC was 1.95 µg/mL.

Question: And the LD50 at 168 h [2, 4]?
Answer: Its LD50 at 168 h is > 1000 mg/kg.

Question: And the “Mortality 7 Days” value [3, 5]?
Answer: The value was 0/3.

Question: What about the “Mortality 24 Hrs” value [3, 5] of the same molecule?
Answer: Its value is 0/3.

Question: And the “Mortality 7 Days” value [3, 6]?
Answer: The value was 0/3.

Question: And the “Mortality 24 Hrs” value [3, 6]?
Answer: The value was 0/3.

Question: What about the “Mortality 7 Days” value [3, 7] of the same molecule?
Answer: The value was 1/3.

Question: And the “Mortality 24 Hrs” value [3, 7]?
Answer: Its value is 0/3.

Question: And the “Mortality 7 Days” value [3, 8]?
Answer: Its value is 0/3.

Question: What about the “Mortality 24 Hrs” value [3, 8] of the same molecule?
Answer: The value was 0/3.
